Converted amounts (≈) assume the structure as drawn. Where two headings read alike, the source gives them in different places.
Columns and labels:
[1] = Metabolic stability in pooled mouse liver microsomes; settings: 1 and 10 µM
[2] = Metabolic stability in pooled human liver microsomes; settings: 1 and 10 µM
EP4 receptor = EP4 receptor (Homo sapiens, UniProt P35408); settings: for inhibition of EP4 receptor: up to 40 µM, agonist saturated conditions
EP2 receptor = EP2 receptor (Homo sapiens, UniProt P43116); experiment: PGE2-induced cAMP accumulation; assay type: cell-based; settings: competitive antagonism of EP2
IP receptor = IP receptor (Homo sapiens, UniProt P43119); experiment: cell-based
β2-Adrenergic receptors = experiment: β2-adrenergic receptor counter assay; settings: up to 40 µM, agonist saturated conditions
[3] = Aqueous solubility in PBS buffer by nephelometry; settings: pH 7
[4] = Pharmacokinetics and brain permeability in female C57Bl/6 mice; settings: 1h and 2h
P388D1 macrophages = experiment: Butaprost-induced mRNA expression of inflammatory markers in P388D1 macrophages; assay type: cell-based

Chain of EP4 receptor (P35408 whole entry): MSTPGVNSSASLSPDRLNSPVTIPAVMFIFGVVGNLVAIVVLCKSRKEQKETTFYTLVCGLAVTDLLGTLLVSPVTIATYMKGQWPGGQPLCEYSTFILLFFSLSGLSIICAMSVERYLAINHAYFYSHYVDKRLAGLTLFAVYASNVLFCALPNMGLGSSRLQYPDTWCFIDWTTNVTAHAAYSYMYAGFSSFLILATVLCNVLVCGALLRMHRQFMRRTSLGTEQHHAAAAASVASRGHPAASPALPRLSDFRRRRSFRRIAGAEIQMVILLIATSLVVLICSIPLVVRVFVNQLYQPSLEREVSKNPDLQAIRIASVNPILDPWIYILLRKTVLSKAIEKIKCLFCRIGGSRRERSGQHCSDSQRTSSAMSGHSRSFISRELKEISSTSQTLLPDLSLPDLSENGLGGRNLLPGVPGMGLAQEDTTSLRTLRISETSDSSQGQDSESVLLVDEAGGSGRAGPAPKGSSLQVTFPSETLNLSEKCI
Chain of IP receptor (P43119 whole entry): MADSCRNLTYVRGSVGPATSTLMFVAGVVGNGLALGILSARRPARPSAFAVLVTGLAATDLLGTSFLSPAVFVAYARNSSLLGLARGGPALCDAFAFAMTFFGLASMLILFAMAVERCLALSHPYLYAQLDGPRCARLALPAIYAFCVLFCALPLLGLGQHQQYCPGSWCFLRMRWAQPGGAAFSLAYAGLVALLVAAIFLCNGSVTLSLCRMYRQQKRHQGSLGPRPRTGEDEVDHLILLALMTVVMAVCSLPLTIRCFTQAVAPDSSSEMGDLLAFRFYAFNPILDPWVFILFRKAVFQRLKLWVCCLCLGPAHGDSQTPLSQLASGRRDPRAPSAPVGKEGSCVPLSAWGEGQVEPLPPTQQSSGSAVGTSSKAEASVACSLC
Chain of EP2 receptor (P43116 whole entry): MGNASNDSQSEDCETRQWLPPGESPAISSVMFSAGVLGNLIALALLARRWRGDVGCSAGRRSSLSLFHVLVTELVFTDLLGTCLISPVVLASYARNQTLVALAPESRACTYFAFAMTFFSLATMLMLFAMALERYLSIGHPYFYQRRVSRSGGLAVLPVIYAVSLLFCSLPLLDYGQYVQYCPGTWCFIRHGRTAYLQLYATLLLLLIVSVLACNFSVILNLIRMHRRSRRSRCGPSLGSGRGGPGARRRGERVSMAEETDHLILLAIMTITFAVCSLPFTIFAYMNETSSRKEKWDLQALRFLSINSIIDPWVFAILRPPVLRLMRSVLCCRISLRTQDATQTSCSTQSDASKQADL

Compound: COc1cc(NS(=O)(=O)c2ccc(NC(=S)NC(=O)/C=C/c3ccc(F)cc3)cc2)ncn1 [compound 6]
- compound remaining at 60 minutes [1]: 40–60%
- compound remaining at 60 minutes [2]: 40–60%

Compound: COc1cc(NS(=O)(=O)c2ccc(NC(=S)NC(=O)c3sc4cc(F)ccc4c3Cl)cc2)nc(OC)n1 [compound 8]
- KB (µM) EP4 (EP4 receptor; Schild KB, average of 2–5 independent experiments): submicromolar

Compound: CCc1nnc(NS(=O)(=O)c2ccc(NC(=S)NC(=O)/C=C/c3ccc(F)cc3)cc2)s1 [TG6-129, (E)-N-((4-(N-(5-ethyl-1,3,4-thiadiazol-2-yl)sulfamoyl)phenyl)carbamothioyl)-3-(4-fluorophenyl)acrylamide]
- Schild regression slope (EP2 receptor): 1.2
- inhibition of EP4 receptor (EP4 receptor): without affecting
- inhibition of EP4 receptor (EP4 receptor; listed as 1): no inhibition
- Kb (IP receptor): 0.199 µM
- inhibition of β2-Adrenergic receptor (β2-Adrenergic receptors): without affecting
- inhibition of β2-Adrenergic receptor (β2-Adrenergic receptors; listed as 1): no inhibition
- solubility [3]: 145 µM (≈ 71.3 µg/mL)
- compound remaining at 60 minutes [1]: 40–60%
- compound remaining at 60 minutes [2]: 40–60%
- compound found in brain samples ([4]; 5mg/kg ip): no detectable amount
- compound found in brain samples ([4]; 10 mg/kg oral gavage): no detectable amount

Compound: CCCC1([C@H](O)C/C=C/[C@H]2[C@H](O)CC(=O)[C@@H]2CCCCCCC(=O)OC)CCC1 [butaprost]
- mRNA expression of COX-2, IL-1β, IL-6, IL-12 (p40), IL-17, IL-23, TNF-α (P388D1 macrophages; butaprost 10 µM, 2 h): significantly elevated
- expression of EP2 receptor mRNA (P388D1 macrophages; butaprost, 2h): only a slight increase
